This passage reports viability results from publication PMC12040169 (PLOS Biology, 2025).

The series in a line: in vitro. Particulars: human, hela cells, % viability.

Regarding `CCc1ccc(-n2nc3ccc(NC(=S)NC(=O)c4cc5ccccc5o4)cc3n2)cc1` [CBK264258], the viability at 28.5 h, 10 µM amounted to 101%.
With `CC1CCN(Cc2ccc(-c3nnn(CC(=O)NCc4ccc(S(N)(=O)=O)cc4)n3)cc2)CC1` [CBK144141C], the viability at 28.5 h, 10 µM was 93.3%.
`Cc1nc(C(Cc2ccsc2)NC(=O)Cn2ccnc2)sc1C` (centres unmarked) [CBK284777]: the viability at 28.5 h, 10 µM is 102%.
The result for `COc1cc(C(=O)NCC(=O)O)cc(Cl)c1OCC(C)C` [CBK297485] reads 80.8%; that for `Cc1cc(C)n(CC(O)CN(Cc2ccco2)Cc2cccs2)n1` (centres unmarked) [CBK282979], 100%; that for `CCCn1c(C(=O)Nc2cccnc2)cc2c(=O)n(C)c(=O)n(C)c21` [CBK287838], 90.8%.
With `Cc1nonc1CN(C)C(=O)c1ccc2c(c1)c(C)c(C)n2C` [CBK281442] the figure was 56.1%; with `C[C@H]1[C@@H]2[C@@H](O)C([C@H](C)C(=O)NC3CC3)CC[C@@]2(C)CC[C@@H]1NC(=O)c1cncnc1` (some centres unmarked) [CBK289453], 91.5%.
For the compound `COCCN(C)c1ccc(C(=O)N2CCC(N3CCOCC3)CC2)cn1` [CBK306851], the viability at 28.5 h, 10 µM amounted to 111%.
For the compound `CCN(CC)S(=O)(=O)c1ccc(OC)c(NC(=O)C2c3ccccc3Oc3ccccc32)c1` [CBK264774], the viability at 28.5 h, 10 µM was 101%.
With `CC(C)CC1(C(CN2C(=O)c3ccccc3C2=O)C(=O)NO)CCN(CCc2ccccc2)C1=O` (centres unmarked) [CBK013029] the figure was 103%; with `Cc1nc(-c2ccccc2)cc([C@H]2CN3CC[C@H]2C[C@@H]3CNC(=O)NC(C)C)n1` [CBK289126], 89.9%; with `COc1ccc(N2C(=O)CSC23C(=O)N(Cc2ccc(Cl)cc2)c2ccccc23)cc1` (centres unmarked) [CBK092396], 91.6%.
With `O=C1CSC2(C(=O)N(Cc3cccc(C(F)(F)F)c3)c3ccccc32)N1c1ccccc1` (centres unmarked) [CBK092392] the figure was 108%; with `CN(C)CCNC(=O)c1ccc2[nH]ccc2c1` [CBK149062], 112%.
The result for `Cc1ccc(C2SCC(C(=O)O)N2C(=O)c2cccc(Cl)c2)cc1` (centres unmarked) [CBK286931] reads 93.3%.
Take `COc1cccc(/C=N/NC(=O)C(=O)NCc2ccccn2)c1` [CBK262268]: the viability at 28.5 h, 10 µM stood at 84.5%.
With `O=C(Nc1cnc(-c2cccc(C(F)(F)F)c2)c(-c2ccco2)n1)c1ccccn1` [CBK036873] the figure was 88.5%; with `Cc1ccc2c(c1)cc(C(=O)N1CCOC(C(=O)N3CCc4ccccc4C3)C1)n2C` (centres unmarked) [CBK286035], 93.8%; with `CN1CCC(NC(=O)c2cccc(NC(=O)C3CCCCC3)c2)C1=O` (centres unmarked) [CBK306228], 81.3%.
With `CCNc1cncc(-c2ccc(N)cc2)n1` [CBK065658] the figure was 112%; with `Cc1cc2c(cc1C)OC1(C=C2)CCN(C(=O)N2CCOCC2)CC1` [CBK285314], 94.4%; with `CC1(C)Cc2nc3sc4c(=O)n(CC(=O)NCCc5ccccc5)cnc4c3cc2CS1` [CBK269180], 97.8%.
With `O=C(c1ccco1)N1CCC(Cn2cncn2)(C2CCCCC2)CC1` [CBK136811] the figure was 87.2%.
Consider `Cn1cc(C(=O)NCC(c2ccccc2F)N2CCCC2)ccc1=O` (centres unmarked) [CBK281950], for which the viability at 28.5 h, 10 µM is 83.9%.
Turning to `Cc1c(C(=O)N2CCC(c3cc4ncccc4[nH]3)CC2)cnn1C` [CBK283384], the viability at 28.5 h, 10 µM stood at 88.1%.
Consider `O=C(CCn1c(C(F)F)cc2cccnc21)NCC1CCCO1` (centres unmarked) [CBK282165], for which the viability at 28.5 h, 10 µM came to 83%.
Turning to `CC(=O)c1cccc(NC(=O)N(CCO)C2CCCc3ccccc32)c1` (centres unmarked) [CBK305195], the viability at 28.5 h, 10 µM was found to be 83%.
With `Cc1[nH]c2ccccc2c1C(c1ccccc1OCC(=O)O)c1c(C)[nH]c2ccccc12` [CBK266038] the figure was 109%; with `CCOc1cccc(CN2CCCCC2c2[nH]ncc2C(N)=O)n1` (centres unmarked) [CBK304750], 98.9%; with `O=C(CCn1c(-c2ccncc2)cc2cccnc21)N1CCCC1` [CBK282151], 96.7%.
On to `CC(=O)Nc1ccc(NC(=O)C2C3CCC(C3)C2C(=O)O)cc1` (centres unmarked) [CBK263534], for which the viability at 28.5 h, 10 µM is 93.9%.
`CS(=O)(=O)N(CC(=O)Nc1ccc(S(=O)(=O)N2CCCC2)cc1)c1ccc2c(c1)OCO2` [CBK268995]: the viability at 28.5 h, 10 µM turned out to be 97.7%.
With `O=C(NCCCO)c1ccc(/C=N/O)nc1` [CBK264560] the figure was 97.7%.
The result for `CC(C)C(=O)NC(c1ccco1)c1ccc2cccnc2c1O` (centres unmarked) [CBK263277] reads 96.5%; that for `O=C(CNC(=O)OCc1ccccc1)NCC(CCCN1CCN(c2ccccc2)CC1)(c1ccccc1)c1ccccc1` [CBK002293], 125%.
With `CC(=O)Nc1ccc2nc(Nc3nc4c(F)cc(F)cc4s3)sc2c1` [CBK287489] the figure was 107%.
For the compound `COC(=O)C1=C(C)N=c2s/c(=C/c3ccc(OC)c(OC(C)=O)c3)c(=O)n2C1c1cccs1` (centres unmarked) [CBK077753], the viability at 28.5 h, 10 µM amounted to 88.3%.
The result for `CCN(C(=O)Nc1cccnc1Oc1ccc(F)cc1)C1CCOCC1` [CBK306535] reads 89.5%.
With `O=C(CSc1nnc(-c2cccnc2)n1-c1cccc(C(F)(F)F)c1)c1ccc(F)cc1` [CBK267599] the figure was 87.9%.
The result for `COc1ccc2[nH]c3c(c2c1)CCOC31CCN(C(=O)CC(C)CC(=O)O)CC1` (centres unmarked) [CBK047197] reads 100%; that for `O=C(O)CCC(=O)CCC(=O)c1ccc(F)cc1` [CBK287191], 87.3%; that for `CC(=O)Nc1ccc(-c2cncc(Nc3ccc4c(c3)OC(F)(F)C(F)(F)O4)n2)cc1` [CBK065726], 98.7%.
In the case of `COc1ccc(C(C)NC2CCN(c3nc(C)cs3)CC2)cc1F` (centres unmarked) [CBK306362], the viability at 28.5 h, 10 µM is 94.7%.
With `Cc1ccn2cc(-c3ccc4c(c3)CC(C)N4S(C)(=O)=O)cc2c1` (centres unmarked) [CBK285253] the figure was 89%.
The result for `Cc1nc2c([N+](=O)[O-])c3c(c([N+](=O)[O-])c2[nH]1)Nc1nonc1N3` [CBK261069] reads 107%; that for `Nn1cnn2c(SCC(=O)Nc3ccc(Cl)cc3)nnc12` [CBK025688], 99%.
With `O=C1CC2(CCN(S(=O)(=O)Cc3ccc(Cl)cc3)CC2)CN1` [CBK283355] the figure was 102%; with `CC(C)CCNC(=O)N1CCN(Cc2ccccc2)CC1` [CBK155657], 87.2%.
In the case of `CCc1cc2cc3c(cc2nc1SCC(=O)Nc1nc(C)c(C)s1)OCO3` [CBK108548], the viability at 28.5 h, 10 µM was 94.8%.
For the compound `O=C(c1nc2ccccn2c1CN1CCCC(O)C1)N1CCOCC1` (centres unmarked) [CBK307237], the viability at 28.5 h, 10 µM is 88.4%.
The result for `CCSc1nc(N2CCNC[C@@H]2C)ccc1C(F)(F)F` [CBK003986A] reads 96.1%; that for `O=C1NC(=O)C(CC(=O)N2CCC3(CCN(Cc4ccccc4)C3)C2)N1` (centres unmarked) [CBK136850], 88.8%.
The result for `CC(NC(=O)N(Cc1ccc(-c2ccccc2)cc1)CC(C)(C)CN)c1cccc2ccccc12` (centres unmarked) [CBK002426C] reads 50.9%.
As to `COc1ccccc1Nc1nc(N)nc(CSc2nccn2C)n1` [CBK266710], the viability at 28.5 h, 10 µM was 95%.
The result for `Cc1ccc(N2C(=O)c3ccc(C(=O)OCc4ccc([N+](=O)[O-])cc4)cc3C2=O)cc1Cl` [CBK265730] reads 103%; that for `COCCN1CCOC2(CCN(C(=O)c3ccc4ccccc4c3)CC2)C1c1ccccc1O` (centres unmarked) [CBK116232], 107%.
The result for `N#Cc1ccccc1CSc1nc2ccc(NC(=O)c3ccc([N+](=O)[O-])cc3)cc2s1` [CBK265868] reads 90.7%; that for `CCC(=O)N(C)[C@H]1CC[C@]2(CC1)CNC(=O)c1ccccc1O2` [CBK281683], 87.5%; that for `Cc1nn(CCn2cncc2-c2cnn(C)c2)c(C)c1C` [CBK281783], 83.7%.
The result for `O=C(CSc1nnc(-c2ccccc2O)o1)c1ccc(Cl)cc1` [CBK068032] reads 98.4%; that for `Brc1ccc2nc3c(nc2c1)Nc1nonc1N3` [CBK262414], 78.5%.
On to `Cc1ccc(NC(=O)c2cc([N+](=O)[O-])ccc2NCCN2C(=O)c3ccccc3C2=O)cc1` [CBK267159], for which the viability at 28.5 h, 10 µM came out at 87.5%.
As for `Cc1sc2nc(NCCO)nc(O)c2c1C` [CBK018257], the viability at 28.5 h, 10 µM was determined as 86.9%.
Turning to `COc1ccccc1NCC(=O)n1nc(C)cc1C` [CBK263879], the viability at 28.5 h, 10 µM was determined as 97.8%.
With `CCC(=O)NC(NC(=S)Nc1cccc2cccnc12)C(Cl)(Cl)Cl` (centres unmarked) [CBK261027] the figure was 96.1%; with `COCCNc1nc(-c2ccoc2)cn2ccnc12` [CBK066416], 104%.
The result for `O=C1c2cccc3cccc(c23)C(=O)N1CC1CCN(CC(O)COCc2ccccc2)CC1` (centres unmarked) [CBK074407C] reads 84.4%; that for `Cc1nc2c(OCCN3C(=O)c4ccccc4C3=O)cccn2c1N(C)C(=O)C1CCCCC1` [CBK147157], 95%.
With `CC1=C[C@@H](CNS(=O)(=O)c2ccccc2)[C@H](C(C)C)C[C@H]1CC(=O)N1CCOCC1` [CBK289049] the figure was 79.7%; with `Cn1cnnc1SCc1nc(N)nc(Nc2ccccc2)n1` [CBK018022], 106%; with `Cn1c(N2CC[C@H](O)C2)nc2cc(C(=O)NC[C@@H]3CCCO3)ccc21` [CBK307433], 109%.
With `O=C(c1ccccc1)N1CCCC1c1n[nH]cc1-c1ccncc1` (centres unmarked) [CBK283433], the viability at 28.5 h, 10 µM was found to be 88.5%.
With `CCOC(=O)C1N(C)C(=O)C(Cc2c(Cl)cccc2Cl)=C(C)N1C` (centres unmarked) [CBK112643] the figure was 94.4%; with `NC(=O)c1cc(Cc2ccccc2)sc1NC(=O)c1cccnc1` [CBK268168], 96.2%; with `COc1cc2c(cc1CNC1CCCc3c1cnn3C)OC(C)C2` (centres unmarked) [CBK304296C], 94.6%.
With `COc1ccc(Cl)cc1NC(=O)CN(C1CCCCC1)S(=O)(=O)c1ccccc1` [CBK265159] the figure was 108%.
